Results published in ChEMBL document CHEMBL4311959, “Discovery of a potent p38α/MAPK14 kinase inhibitor: Synthesis, in vitro/in vivo biological evaluation, and docking studies” (Eur J Med Chem, 2019).

How the values were obtained:
[1] = molecular target: Glycogen synthase kinase-3 beta (Homo sapiens) (UniProt P49841); assay: Inhibition of human GSK3B at 10 uM using YRRAAVPPSPSLSRHSSPHQ(pS)EDEEE as substrate by [gamma-33P]-ATP assay relative to control
[2] = molecular target: Epidermal growth factor receptor (Homo sapiens) (UniProt P00533); assay: Inhibition of human EGFR at 10 uM using poly[Glu:Tyr] (4:1) as substrate by [gamma-33P]-ATP assay relative to control
[3] = molecular target: Proto-oncogene tyrosine-protein kinase Src (Homo sapiens) (UniProt P12931); assay: Inhibition of human c-SRC at 10 uM using poly[Glu:Tyr] (4:1) as substrate by [gamma-33P]-ATP assay relative to control
Homo sapiens [4] = species: Homo sapiens; assay: Selectivity index, ratio of IC50 for human c-MET to IC50 for human p38alpha
[5] = molecular target: Dual specificity mitogen-activated protein kinase kinase 1 (Homo sapiens) (UniProt Q02750); assay: Inhibition of human MEK1 at 10 uM using ERK2 as substrate by [gamma-33P]-ATP assay relative to control
Homo sapiens [6] = species: Homo sapiens; assay: Selectivity index, ratio of IC50 for human ERG to IC50 for human p38alpha
THP-1 = assay: Inhibition of LPS-induced TNFalpha production in human THP1 cells incubated for 1 hr followed by LPS stimulation and measured after 4 hrs by TR-FRET method; format: functional, cell-based
[7] = AUClast in Sprague-Dawley rat at 10 mg/kg, iv measured for each 30 mins by LC-MS/MS analysis; format: ADME, organism-based; parameters: dose 10 mg/kg, route intravenous, time 0 - last; conditions: in vivo
[8] = tested on: Mitogen-activated protein kinase 14 (Homo sapiens), Q16539 [T106M]; assay: Inhibition of human p38alpha T106M mutant at 10 uM using MBP as substrate by [gamma-33P]-ATP assay relative to control
Homo sapiens [9] = species: Homo sapiens; assay: Selectivity index, ratio of IC50 for human BRAF V600E mutant to IC50 for human p38alpha
[10] = molecular target: Mitogen-activated protein kinase 14 (Homo sapiens, UniProt Q16539); assay: Inhibition of recombinant Nanoluc-tagged p38alpha (unknown origin) expressed in HEK293 cells incubated for 2 to 3 mins by NanoBRET assay; format: cell-based
[11] = molecular target: DNA-dependent protein kinase catalytic subunit (Homo sapiens) (UniProt P78527); assay: Inhibition of human DNAPK at 10 uM using EPPLSQEAFADLWKK as substrate by […]-ATP assay relative to control
[12] = Clearance in Sprague-Dawley rat at 10 mg/kg, iv measured for each 30 mins by LC-MS/MS analysis; format: ADME, organism-based; conditions: in vivo
[13] = molecular target: Receptor-type tyrosine-protein kinase FLT3 (Homo sapiens) (UniProt P36888); assay: Inhibition of human FLT3 at 10 uM using EAIYAAPFAKKK as substrate by [gamma-33P]-ATP assay relative to control
[14] = molecular target: Tyrosine-protein kinase Tec (Homo sapiens) (UniProt P42680); assay: Inhibition of human TEC at 10 uM using poly[Glu:Tyr] (4:1) as substrate by [gamma-33P]-ATP assay relative to control
[15] = molecular target: Mitogen-activated protein kinase 8 (Homo sapiens) (UniProt P45983); assay: Inhibition of human JNK1 at 10 uM using ATF2 as substrate by [gamma-33P]-ATP assay relative to control
[16] = molecular target: Mitogen-activated protein kinase 1 (Homo sapiens) (UniProt P28482); assay: Inhibition of human ERK2 at 10 uM using MBP as substrate by [gamma-33P]-ATP assay relative to control
[17] = molecular target: Hepatocyte growth factor receptor (Homo sapiens, UniProt P08581); assay: Inhibition of human c-MET using KKKSPGEYVNIEFG as substrate by [gamma-33P]-ATP assay
[18] = molecular target: Cyclin-dependent kinase 2/cyclin E1 (Homo sapiens) (UniProt P24864+P24941); assay: Inhibition of human CDK2/cyclin-E at 10 uM using histone H1 as substrate by [gamma-33P]-ATP assay relative to control; format: protein-complex assay
[19] = molecular target: RAC-alpha serine/threonine-protein kinase (Homo sapiens) (UniProt P31749); assay: Inhibition of human AKT1 at 10 uM using KGSGSGRPRTSSFAEG as substrate by [gamma-33P]-ATP assay relative to control
[20] = molecular target: Serine/threonine-protein kinase mTOR (Homo sapiens) (UniProt P42345); assay: Inhibition of human mTOR at 10 uM using 4EBP1 as substrate by [gamma-33P]-ATP assay relative to control
[21] = molecular target: Mitogen-activated protein kinase 11 (Homo sapiens) (UniProt Q15759); assay: Inhibition of human p38beta at 10 uM using MBP as substrate by [gamma-33P]-ATP assay relative to control
[22] = Cmax in Sprague-Dawley rat at 10 mg/kg, po measured for each 30 mins by LC-MS/MS analysis; format: ADME, organism-based; parameters: dose 10 mg/kg, route oral; conditions: in vivo
[23] = molecular target: Dual specificity mitogen-activated protein kinase kinase 6 (Homo sapiens) (UniProt P52564); assay: Inhibition of human MKK6 at 10 uM using p38alpha as substrate by [gamma-33P]-ATP assay relative to control
[24] = Stability in human plasma assessed as remaining compound at 10 uM incubated for 30 mins by LC-MS analysis; format: ADME, cell-free; conditions: read-out: Stability
[25] = molecular target: Insulin receptor (Homo sapiens) (UniProt P06213); assay: Inhibition of human IR at 10 uM using poly[Glu:Tyr] (4:1) as substrate by [gamma-33P]-ATP assay relative to control
[26] = molecular target: Vascular endothelial growth factor receptor 2 (Homo sapiens) (UniProt P35968); assay: Inhibition of human KDR at 10 uM using poly[Glu:Tyr] (4:1) as substrate by [gamma-33P]-ATP assay relative to control
Chain of Vascular endothelial growth factor receptor 2 (Homo sapiens) (P35968 whole entry): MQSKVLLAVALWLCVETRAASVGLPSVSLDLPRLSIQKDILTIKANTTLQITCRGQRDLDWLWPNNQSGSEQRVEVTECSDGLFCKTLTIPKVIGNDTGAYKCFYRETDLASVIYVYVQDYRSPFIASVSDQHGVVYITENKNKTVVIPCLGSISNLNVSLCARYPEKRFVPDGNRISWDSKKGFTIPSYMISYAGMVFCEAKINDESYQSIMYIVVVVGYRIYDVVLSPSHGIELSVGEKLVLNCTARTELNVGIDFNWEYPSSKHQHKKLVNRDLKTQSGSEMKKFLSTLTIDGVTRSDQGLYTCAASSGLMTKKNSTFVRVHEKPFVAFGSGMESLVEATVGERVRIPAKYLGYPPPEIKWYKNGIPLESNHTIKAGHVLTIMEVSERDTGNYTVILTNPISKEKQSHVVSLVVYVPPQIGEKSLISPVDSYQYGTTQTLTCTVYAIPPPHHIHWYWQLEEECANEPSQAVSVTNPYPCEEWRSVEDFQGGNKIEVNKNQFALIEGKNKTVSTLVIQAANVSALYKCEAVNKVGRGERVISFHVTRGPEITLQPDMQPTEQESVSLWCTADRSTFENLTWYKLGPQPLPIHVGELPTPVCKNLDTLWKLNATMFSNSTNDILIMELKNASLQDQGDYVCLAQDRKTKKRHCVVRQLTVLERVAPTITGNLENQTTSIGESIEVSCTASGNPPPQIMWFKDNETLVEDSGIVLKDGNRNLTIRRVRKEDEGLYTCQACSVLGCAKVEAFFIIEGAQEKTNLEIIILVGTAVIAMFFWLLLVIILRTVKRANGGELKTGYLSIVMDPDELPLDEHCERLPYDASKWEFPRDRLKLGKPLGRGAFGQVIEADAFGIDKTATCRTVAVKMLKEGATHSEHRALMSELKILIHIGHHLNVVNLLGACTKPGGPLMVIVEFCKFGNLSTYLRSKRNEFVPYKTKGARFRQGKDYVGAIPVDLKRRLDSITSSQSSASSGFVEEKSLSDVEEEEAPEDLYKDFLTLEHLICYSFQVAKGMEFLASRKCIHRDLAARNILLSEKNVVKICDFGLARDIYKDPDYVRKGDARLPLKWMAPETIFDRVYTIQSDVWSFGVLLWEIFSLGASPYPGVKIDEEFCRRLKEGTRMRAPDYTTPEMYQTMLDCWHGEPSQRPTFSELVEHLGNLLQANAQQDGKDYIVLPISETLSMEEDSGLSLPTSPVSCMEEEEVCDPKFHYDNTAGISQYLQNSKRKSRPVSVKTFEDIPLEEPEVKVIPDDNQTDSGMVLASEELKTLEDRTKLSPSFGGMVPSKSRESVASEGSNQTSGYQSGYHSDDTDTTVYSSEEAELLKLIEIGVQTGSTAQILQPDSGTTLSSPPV

Chain of Mitogen-activated protein kinase 1 (Homo sapiens) (P28482 whole entry): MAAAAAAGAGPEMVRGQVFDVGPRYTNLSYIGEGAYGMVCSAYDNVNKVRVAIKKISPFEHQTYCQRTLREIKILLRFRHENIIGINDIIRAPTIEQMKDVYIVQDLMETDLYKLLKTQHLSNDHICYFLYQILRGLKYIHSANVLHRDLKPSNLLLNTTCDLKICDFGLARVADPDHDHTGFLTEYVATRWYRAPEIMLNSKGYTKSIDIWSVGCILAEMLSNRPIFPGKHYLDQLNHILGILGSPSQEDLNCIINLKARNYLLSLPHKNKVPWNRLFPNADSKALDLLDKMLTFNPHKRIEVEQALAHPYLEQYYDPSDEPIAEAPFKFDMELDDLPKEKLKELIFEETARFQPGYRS
Chain of Mitogen-activated protein kinase 14 (Homo sapiens), Q16539 [T106M] (Q16539 whole entry T106M): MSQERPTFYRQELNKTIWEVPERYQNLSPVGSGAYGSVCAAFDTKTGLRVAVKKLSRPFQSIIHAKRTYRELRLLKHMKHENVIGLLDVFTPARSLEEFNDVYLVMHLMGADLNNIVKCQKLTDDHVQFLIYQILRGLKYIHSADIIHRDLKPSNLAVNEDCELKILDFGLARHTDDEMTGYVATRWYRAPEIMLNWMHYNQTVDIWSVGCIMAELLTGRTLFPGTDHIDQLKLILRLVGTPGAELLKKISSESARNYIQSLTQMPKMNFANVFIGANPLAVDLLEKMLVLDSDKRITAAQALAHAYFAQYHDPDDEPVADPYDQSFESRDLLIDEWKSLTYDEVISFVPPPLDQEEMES
Chain of Mitogen-activated protein kinase 14 (Q16539 whole entry): as the sequence (Q16539 whole entry T106M) above, with M106T counted along it
Chain of Tyrosine-protein kinase Tec (Homo sapiens) (P42680 whole entry): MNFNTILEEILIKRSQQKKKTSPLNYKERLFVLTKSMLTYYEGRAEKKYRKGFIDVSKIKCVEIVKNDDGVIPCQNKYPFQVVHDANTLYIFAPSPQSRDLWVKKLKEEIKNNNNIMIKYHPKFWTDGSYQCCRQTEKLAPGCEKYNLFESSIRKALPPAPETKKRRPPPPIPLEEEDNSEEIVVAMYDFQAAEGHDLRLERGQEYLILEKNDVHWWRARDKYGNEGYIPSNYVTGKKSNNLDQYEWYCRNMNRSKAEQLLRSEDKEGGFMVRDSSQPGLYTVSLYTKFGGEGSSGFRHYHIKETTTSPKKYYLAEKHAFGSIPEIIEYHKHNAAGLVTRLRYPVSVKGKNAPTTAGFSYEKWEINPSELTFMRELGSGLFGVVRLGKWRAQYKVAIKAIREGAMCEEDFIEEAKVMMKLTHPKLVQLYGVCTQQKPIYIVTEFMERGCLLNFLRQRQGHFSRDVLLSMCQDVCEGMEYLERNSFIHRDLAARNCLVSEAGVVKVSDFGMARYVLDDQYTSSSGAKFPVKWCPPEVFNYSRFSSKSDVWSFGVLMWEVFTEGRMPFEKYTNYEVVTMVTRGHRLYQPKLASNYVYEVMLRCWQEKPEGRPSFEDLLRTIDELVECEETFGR
Chain of RAC-alpha serine/threonine-protein kinase (Homo sapiens) (P31749 whole entry): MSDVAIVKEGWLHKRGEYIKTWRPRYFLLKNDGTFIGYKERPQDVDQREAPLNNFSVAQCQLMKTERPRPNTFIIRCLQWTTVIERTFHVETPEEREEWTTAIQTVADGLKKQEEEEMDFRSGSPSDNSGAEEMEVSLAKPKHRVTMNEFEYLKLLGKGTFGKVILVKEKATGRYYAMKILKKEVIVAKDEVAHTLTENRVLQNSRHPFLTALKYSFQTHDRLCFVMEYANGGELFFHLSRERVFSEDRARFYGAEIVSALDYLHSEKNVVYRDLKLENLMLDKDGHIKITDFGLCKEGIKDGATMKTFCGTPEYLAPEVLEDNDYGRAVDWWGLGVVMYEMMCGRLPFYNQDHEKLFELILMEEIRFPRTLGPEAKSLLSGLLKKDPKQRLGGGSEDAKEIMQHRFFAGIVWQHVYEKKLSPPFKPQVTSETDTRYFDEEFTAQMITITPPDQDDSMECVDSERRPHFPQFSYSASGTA
Chain of Mitogen-activated protein kinase 11 (Homo sapiens) (Q15759 whole entry): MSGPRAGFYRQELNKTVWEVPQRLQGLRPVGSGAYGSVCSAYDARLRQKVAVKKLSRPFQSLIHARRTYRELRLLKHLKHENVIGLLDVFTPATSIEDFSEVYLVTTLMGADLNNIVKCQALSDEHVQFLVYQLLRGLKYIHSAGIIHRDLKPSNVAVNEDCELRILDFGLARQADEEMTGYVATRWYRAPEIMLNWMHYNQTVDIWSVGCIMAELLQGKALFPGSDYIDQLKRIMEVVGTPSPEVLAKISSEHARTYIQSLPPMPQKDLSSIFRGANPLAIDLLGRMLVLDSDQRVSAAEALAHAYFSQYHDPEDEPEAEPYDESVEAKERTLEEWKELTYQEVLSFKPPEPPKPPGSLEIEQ
Chain of Epidermal growth factor receptor (Homo sapiens) (P00533 whole entry): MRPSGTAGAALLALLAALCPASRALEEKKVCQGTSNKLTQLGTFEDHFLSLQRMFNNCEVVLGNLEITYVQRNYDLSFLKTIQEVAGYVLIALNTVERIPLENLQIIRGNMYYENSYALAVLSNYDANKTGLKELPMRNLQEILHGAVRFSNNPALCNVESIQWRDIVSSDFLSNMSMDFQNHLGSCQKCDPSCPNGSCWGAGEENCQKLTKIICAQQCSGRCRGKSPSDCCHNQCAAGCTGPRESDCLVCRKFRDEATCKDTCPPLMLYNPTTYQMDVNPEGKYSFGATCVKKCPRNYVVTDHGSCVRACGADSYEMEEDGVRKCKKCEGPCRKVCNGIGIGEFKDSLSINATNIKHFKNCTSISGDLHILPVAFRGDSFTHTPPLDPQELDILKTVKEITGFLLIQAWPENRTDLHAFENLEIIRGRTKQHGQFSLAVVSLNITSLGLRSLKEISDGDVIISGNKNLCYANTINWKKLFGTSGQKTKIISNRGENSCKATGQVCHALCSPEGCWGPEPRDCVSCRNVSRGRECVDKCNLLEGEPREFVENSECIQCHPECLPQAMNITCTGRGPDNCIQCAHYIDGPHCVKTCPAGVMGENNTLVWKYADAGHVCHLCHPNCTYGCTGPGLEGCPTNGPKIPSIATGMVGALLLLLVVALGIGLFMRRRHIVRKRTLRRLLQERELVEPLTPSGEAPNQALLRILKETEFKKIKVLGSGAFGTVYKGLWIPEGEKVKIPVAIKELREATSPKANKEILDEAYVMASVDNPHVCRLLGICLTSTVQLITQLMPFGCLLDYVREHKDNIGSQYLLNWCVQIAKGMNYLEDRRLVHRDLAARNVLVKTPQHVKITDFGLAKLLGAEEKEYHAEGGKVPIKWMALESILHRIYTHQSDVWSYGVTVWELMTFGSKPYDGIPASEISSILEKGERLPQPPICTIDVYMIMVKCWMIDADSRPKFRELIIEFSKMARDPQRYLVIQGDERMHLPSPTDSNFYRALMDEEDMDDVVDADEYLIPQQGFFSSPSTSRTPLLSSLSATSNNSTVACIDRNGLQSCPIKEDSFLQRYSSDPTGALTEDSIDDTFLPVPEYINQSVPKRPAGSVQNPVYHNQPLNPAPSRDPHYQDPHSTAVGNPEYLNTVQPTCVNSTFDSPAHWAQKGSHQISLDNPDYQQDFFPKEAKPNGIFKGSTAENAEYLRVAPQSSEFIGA

Compound `COc1ccc(-c2nn(-c3cccc(NC(=O)c4cccc(C(F)(F)F)c4)c3)cc2-c2ccncc2)cc1Cl` has an inhibition [1] of -6.34%, an inhibition [2] of 24.5% and an inhibition [3] of 33.4%. For the same compound, the Ratio IC50 (Homo sapiens [4]) was 455, the inhibition [5] was 12.2% and the Ratio IC50 (Homo sapiens [6]) was 23.8. It also gave an IC50 (THP-1) of 58 nM, an AUC(0-t) at 0.5 h [7] of 1450 ng·h/mL and an inhibition [8] of -4.1%. It also gave a Ratio IC50 (Homo sapiens [9]) of 7.18, an EC50 [10] of 520 nM and an inhibition [11] of -1.83%. For the same compound, the clearance [12] was 90 mL/min/kg, the inhibition [13] was -5.65% and the inhibition [14] was -3.79%. It also gave an inhibition [15] of 28.2%, an inhibition [16] of 1.72% and an IC50 [17] greater than 10000 nM. It also gave an inhibition [18] of 2.43%, an inhibition [19] of 7.06% and an inhibition [20] of 6.75%. For the same compound, the inhibition [21] was 63.2%, the Cmax [22] was 33.2 ng/mL and the inhibition [23] was 29.5%. The remaining at 0.5 h, 10 µM [24] was 100%, the inhibition [25] was -0.36% and the inhibition [26] was 13.2%.
